Marks after values point to notes of the source that are not given here.
Legend:
AH109A cells = assay: apoptosis of AH109A cells by flow cytometry, Annexin V/PI double staining; format: cell-based, rat; conditions: for proportion of the fourth quadrant (early stage of apoptosis) / proportion of the second quadrant (secondary necrosis) / proportion of the third quadrant (live cells): 3 hours
Protocol: The analysis was performed using an ANNEXIN V FITC kit (IMMUNOTECH, Marseille, France). AH109A cells were inoculated at the density of 1×10^6 cells with 3 ml of the experimental medium in a dish with 6 cm in diameter (NUNC), and the cells were cultured for 0, 3 and 6 hours in a CO2 incubator at 37° C. The AH109A cells cultured under the respective treatment conditions were recovered, centrifuged for 5 minutes at 4° C. at 1000 rpm (90×g), and washed once with PBS (−). Subsequently, the cells was suspended in 490 μl of a binding buffer, and 5 μl of a PI solution and 5 μl of ANNEXIN V FITC, and these substances were gently mixed. The cells were stained by allowing the preparation to stand quietly for 10 minutes on ice with the light blocked. The apoptosis of the cells was analyzed using a flow cytometer (EPICS ELITE ESP; Beckman-Coulter, Hialeah, Fla., USA).

[1] = serum lipid peroxide levels (TBARS) in hepatoma-bearing rats; format: in vivo, rat; conditions: mean ± SEM of 11 rats
Protocol: Male Donryu rats of four weeks old were purchased from NRC Haruna, Gumma, Japan, and were preliminarily fed for 6 days in quintuple cages in a room with a controlled environment with light period of 8:00 to 20:00, room temperature of 22±1° C., and relative humidity of 60±5%. For the first 3 days, the animals were fed ad libitum with a stock pellet diet (CE-2; CLEA Japan, Tokyo), and for the next 3 days, they were fed a basal diet containing 20% milk casein (20C) (Table 1) ad libitum together with tap water in a glass container. Following the completion of this preparatory raising, the rats were divided into three groups (11 animals per group) with equal average body weights of the respective groups were equal, and 1.0×10^7 of AH109A cells suspended in PBS (−) were transplanted in the back of all the rats. From the time immediately after transplantation, in the respective experimental groups, the animals were fed the experimental diets shown in Table 2. During the experimental period, the body weight, food intake and solid tumor size (sum of length, width and height) were measured everyday. […] LPO levels were determined by measuring thiobarbituric acid-reactive substances (TBARS) by the Yagi fluorescence method using a lipid peroxide test Wako (Wako Pure Chemical Industries).

[2] = fecal steroid excretion in hepatoma-bearing rats; format: in vivo, rat; conditions: for Steroid excretion Bile acids / Steroid excretion Neutral sterols: feces, final two days, mean ± SEM of 11 rats
Protocol: Male Donryu rats of four weeks old were purchased from NRC Haruna, Gumma, Japan, and were preliminarily fed for 6 days in quintuple cages in a room with a controlled environment with light period of 8:00 to 20:00, room temperature of 22±1° C., and relative humidity of 60±5%. For the first 3 days, the animals were fed ad libitum with a stock pellet diet (CE-2; CLEA Japan, Tokyo), and for the next 3 days, they were fed a basal diet containing 20% milk casein (20C) (Table 1) ad libitum together with tap water in a glass container. Following the completion of this preparatory raising, the rats were divided into three groups (11 animals per group) with equal average body weights of the respective groups were equal, and 1.0×10^7 of AH109A cells suspended in PBS (−) were transplanted in the back of all the rats. From the time immediately after transplantation, in the respective experimental groups, the animals were fed the experimental diets shown in Table 2.
During the experimental period, the body weight, food intake and solid tumor size (sum of length, width and height) were measured everyday. On the day that the animals were killed, animals were deprived of experimental diets at 9:00, but freely given water until they were killed 4 hours later. Blood was collected from carotid, and the liver and solid tumors were excised. The collected blood was allowed to stand for approximately 2 hours at room temperature, and then centrifuged for 10 minutes at 3000 rpm (1750×g), 4° C., to obtain serum. This blood serum was frozen and stored at −20° C. The livers and solid tumors were washed with physiological saline, blotted on filter paper, and weighed. Furthermore, feces from the 19th to 21st days after transplantation were collected, and these feces were frozen and stored at −20° C. for the measurement of the amounts of steroids excreted from the body.
The amounts of fecal steroids, neutral sterol (NS) and bile acid (BA), excreted into feces were measured. The feces were dried at 60° C., and the dry weight was measured; then, the feces were pulverized using a mixer and a mortar and pestle. Approximately 100 mg of feces was precisely weighed and placed in a screw-capped test tube, and then was saponified for 1 hour at 70° C. by adding 1.5 ml of 4 N potassium hydroxide solution and 1 ml of ethanol. The NS was extracted by transferring the n-hexane layer to a test tube by adding 3 ml of n-hexane to a test tube, shaking this mixture and then subjecting to centrifugal separation at 3000 rpm (1750×g) for 10 minutes. The same operation was performed three times. Subsequently, with […] of distilled water to dilute potassium hydroxide concentration thereof to 1.2 N, and the mixture was subjected to a high-pressure treatment (autoclaved) for 3 hours at 121° C., to deconjugate the conjugated BA. After the preparation was allowed to stand until cool, BA was extracted by adding 3 ml of diethyl ether after adjusting the pH of the solution to 1 with 0.8 ml of hydrochloric acid, and the resulting mixture was shaked; then, subjecting this preparation to centrifugal separation for 10 minutes at 3000 rpm (1750×g), to transfer the diethyl ether layer to a test tube. This operation was performed three times.
The n-hexane extract was dried; then, was added with 0.4 ml of isopropanol and 1.6 ml of 10% Triton X-100. to dissolve the NS. An aliquot (0.24 ml) of this solution was sampled, and was subjected to measurement of NS using a cholesterol C test Wako. […]

O=C1OCC(Cc2cccc(O)c2)C1Cc1cccc(O)c1 (stereo not shown) [Enterolactone, enterolactone]
proportion of the fourth quadrant (early stage of apoptosis) (AH109A cells; 6.25 μM ENL): 8.4%
proportion of the second quadrant (secondary necrosis) (AH109A cells; 6.25 μM ENL): 2.8%
proportion of the third quadrant (live cells) (AH109A cells; 6.25 μM ENL): 88.1%
proportion of the fourth quadrant (early stage of apoptosis) (AH109A cells; 12.5 μM ENL): 11.4%
proportion of the second quadrant (secondary necrosis) (AH109A cells; 12.5 μM ENL): 2.3%
proportion of the third quadrant (live cells) (AH109A cells; 12.5 μM ENL): 86.1%
proportion of cells in the early stage of apoptosis (AH109A cells; 6.25 and 12.5 μM ENL): increased
proportion of cells showing secondary necrosis (AH109A cells; 6.25 and 12.5 μM ENL): increased to some extent
proportion of live cells (AH109A cells; 6.25 and 12.5 μM ENL): decreased in a dose-dependent manner
Serum TBARS ([1]; diet 10 ppm): 7.31 ± 0.37 nmol/mL
Serum TBARS ([1]; diet 100 ppm): 6.87 ± 0.51 nmol/mL
amounts of neutral sterol and bile acid excreted into the feces ([2]; ENL diet groups versus control diet group): significant and dose-dependent increase
Steroid excretion Bile acids ([2]; diet 10 ppm): 18.7 ± 1.49^ab μmol/2 days
Steroid excretion Neutral sterols ([2]; diet 10 ppm): 29.5 ± 2.7^b μmol/2 days
Steroid excretion Bile acids ([2]; diet 100 ppm): 20.8 ± 1.89^b μmol/2 days
Steroid excretion Neutral sterols ([2]; diet 100 ppm): 30.9 ± 2.18^b μmol/2 days

Reference: patent US20070117864A1, “Composition for preventing and treating hepatoma” (Tokyo University of Agr. & Tech. TLO Co., Ltd., priority 2003, published 2007)
